Measured values as given in PubChem BioAssay (NCI).
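Five compound concentrations were applied to cells in 96-well plates for 48 hours; endpoints were derived by simple linear interpolation of the resulting dose-response curve. GI50 marks 50% less growth. The concentration for full growth arrest is given as TGI.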

What was measured:
Test in all cases: inhibition of tumour cell growth, NCI panel, 48 h
[1] = test system: MOLT-4 leukemia
[2] = test system: SW-620 colon
[3] = test system: SF-295 CNS
[4] = test system: 786-0 renal
[5] = test system: KM12 colon
[6] = test system: A549 NSCLC
[7] = test system: OVCAR-8 ovarian
[8] = test system: TK-10 renal
[9] = test system: OVCAR-5 ovarian
[10] = test system: PC-3 prostate
[11] = test system: MCF7 breast
[12] = test system: NCI-H460 lung
[13] = test system: RXF 393 renal
[14] = test system: U251 CNS
[15] = test system: IGROV1 ovarian
[16] = test system: RPMI-8226 leukemia
[17] = test system: HCT-116 colon
[18] = test system: HCC-2998 colon
[19] = test system: HL-60(TB) leukemia
[20] = test system: EKVX NSCLC
[21] = test system: HOP-92 NSCLC
[22] = test system: SK-MEL-28 melanoma
[23] = test system: T-47D breast
[24] = test system: DU-145 prostate
[25] = test system: HT29 colon
[26] = test system: NCI-H23 lung
[27] = test system: HCT-15 colon
[28] = test system: SF-268 CNS
[29] = test system: OVCAR-4 ovarian
[30] = test system: UO-31 renal
[31] = test system: CCRF-CEM leukemia
[32] = test system: BT-549 breast
[33] = test system: HOP-62 NSCLC
[34] = test system: UACC-62 melanoma
[35] = test system: CAKI-1 renal
[36] = test system: UACC-257 melanoma
[37] = test system: SK-MEL-2 melanoma
[38] = test system: NCI-H226 lung
[39] = test system: SF-539 CNS
[40] = test system: NCI/ADR-RES ovarian
[41] = test system: M14 melanoma
[42] = test system: NCI-H522 lung
[43] = test system: K-562 leukemia
[44] = test system: LOX IMVI melanoma
[45] = test system: MALME-3M melanoma
[46] = test system: COLO 205 colon
[47] = test system: SK-MEL-5 melanoma
[48] = test system: SR leukemia
[49] = test system: SNB-19 CNS
[50] = test system: A498 renal
[51] = test system: SK-OV-3 ovarian
[52] = test system: SN12C renal
[53] = test system: MDA-MB-231 breast
[54] = test system: SNB-75 CNS
[55] = test system: HS 578T breast
[56] = test system: OVCAR-3 ovarian
[57] = test system: MDA-MB-435
[58] = test system: ACHN renal

CNC(=O)c1ccccc1Nc1cc(Nc2ccc(N3CCOCC3)cc2OC)ncc1C(F)(F)F
GI50 [1]: 6.64 µM
TGI [1]: > 86.8 µM
GI50 [2]: 1.92 µM
TGI [2]: > 65.6 µM
GI50 [3]: 1.07 µM
TGI [3]: 41.8 µM
GI50 [4]: 4.12 µM
TGI [4]: 34.6 µM
GI50 [5]: 1.18 µM
TGI [5]: 11.6 µM
GI50 [6]: 1.7 µM
TGI [6]: 22.7 µM
GI50 [7]: 6.88 µM
TGI [7]: > 100 µM
GI50 [8]: 1.23 µM
TGI [8]: 40.2 µM
GI50 [9]: 0.637 µM
TGI [9]: > 100 µM
GI50 [10]: 18.6 µM
TGI [10]: > 100 µM
GI50 [11]: 0.296 µM
TGI [11]: 34.5 µM
GI50 [12]: 2.54 µM
TGI [12]: 19.4 µM
GI50 [13]: 3.08 µM
TGI [13]: 20 µM
GI50 [14]: 10.4 µM
TGI [14]: > 87.6 µM
GI50 [15]: 2.28 µM
TGI [15]: > 100 µM
GI50 [16]: 3.61 µM
TGI [16]: 48 µM
GI50 [17]: 1.94 µM
TGI [17]: 19.1 µM
GI50 [18]: 1.68 µM
TGI [18]: 62.4 µM
GI50 [19]: 1 µM
TGI [19]: 24.8 µM
GI50 [20]: 0.341 µM
TGI [20]: 64.8 µM
GI50 [21]: 0.011 µM
TGI [21]: 0.172 µM
GI50 [22]: 1.85 µM
TGI [22]: > 83.8 µM
GI50 [23]: 14.5 µM
TGI [23]: 59.8 µM
GI50 [24]: 3.4 µM
TGI [24]: > 81.5 µM
GI50 [25]: 0.333 µM
TGI [25]: 15.4 µM
GI50 [26]: 0.757 µM
TGI [26]: 60.7 µM
GI50 [27]: 3.09 µM
TGI [27]: > 95.7 µM
GI50 [28]: 4.86 µM
TGI [28]: 80.9 µM
GI50 [29]: 3.24 µM
TGI [29]: > 100 µM
GI50 [30]: 1.91 µM
TGI [30]: 17.8 µM
GI50 [31]: 8.49 µM
TGI [31]: 97.8 µM
GI50 [32]: 8.14 µM
TGI [32]: 41.8 µM
GI50 [33]: 0.296 µM
TGI [33]: 52.5 µM
GI50 [34]: 0.419 µM
TGI [34]: 20.4 µM
GI50 [35]: 1.64 µM
TGI [35]: > 54.6 µM
GI50 [36]: 0.346 µM
TGI [36]: 63.7 µM
GI50 [37]: 3.82 µM
TGI [37]: 24.9 µM
GI50 [38]: 2.42 µM
TGI [38]: 55.6 µM
GI50 [39]: 6.37 µM
TGI [39]: 34 µM
GI50 [40]: 2.82 µM
TGI [40]: > 68.3 µM
GI50 [41]: 0.739 µM
TGI [41]: 32.2 µM
GI50 [42]: 7.67 µM
TGI [42]: 37.6 µM
GI50 [43]: 5 µM
TGI [43]: > 100 µM
GI50 [44]: 1.45 µM
TGI [44]: 18.5 µM
GI50 [45]: 0.264 µM
TGI [45]: 63.6 µM
GI50 [46]: 0.161 µM
TGI [46]: 1.37 µM
GI50 [47]: 4.55 µM
TGI [47]: 22.1 µM
GI50 [48]: 0.248 µM
TGI [48]: 12.4 µM
GI50 [49]: 15.6 µM
TGI [49]: > 100 µM
GI50 [50]: 2.29 µM
TGI [50]: 10.5 µM
GI50 [51]: 5.44 µM
TGI [51]: 57.6 µM
GI50 [52]: 12.2 µM
TGI [52]: > 81.5 µM
GI50 [53]: 2.7 µM
TGI [53]: 47.1 µM
GI50 [54]: 1.31 µM
TGI [54]: 43.5 µM
GI50 [55]: 13.5 µM
TGI [55]: > 87.6 µM
GI50 [56]: 13.1 µM
TGI [56]: > 85.3 µM
GI50 [57]: 0.815 µM
TGI [57]: > 94.3 µM
GI50 [58]: 5.27 µM
TGI [58]: > 84.5 µM
